Melting point data for 15 molecules are collected here from patent US7060822B1, “2-pyrazolin-5-ones” (Abbott GmbH & Co. KG, priority 1999, dated 2006).

One may read the melting point as the temperature, or range, at which the solid turns liquid.

SMILES strings stand for the structures.

In the case of `Cc1[nH]c(C=C2C(=O)NN=C2c2nc3ccccc3s2)c(C)c1CN1CCOCC1` [Example 134, 3-(Benzothiazol-2-yl)-4-[(3,5-dimethyl-4-morpholinomethylpyrrol-2-yl)methylene]-2-pyrazolin-5-one], the melting point is 285 °C (dec.). The result for `CCc1c(C)[nH]c(C=C2C(=O)NN=C2c2cnccn2)c1C` [Example 135, 4-[(3,5-Dimethyl-4-ethylpyrrol-2-yl)methylene]-3-pyrazinyl-2-pyrazolin-5-one] reads 264 to 267 °C; that for `CCOC(=O)c1c[nH]c(C=C2C(=O)NN=C2c2cnccn2)c1` [Example 136, 4-[(4-Ethoxycarbonylpyrrol-2-yl)methylene]-3-pyrazinyl-2-pyrazolin-5-one], 155 to 157 °C. The result for `O=C1NN=C(c2cnccn2)C1=Cc1cc(C(=O)O)c[nH]1` [Example 137, 4-[(4-Carboxypyrrol-2-yl)methylene]-3-pyrazinyl-2-pyrazolin-5-one] reads 230 to 232 °C. The result for `Cc1[nH]c(C=C2C(=O)NN=C2c2cnccn2)c(C)c1CNC(=O)C(F)(F)F` [Example 139, 4-[(3,5-Dimethyl-4-trifluoroacetamidomethylpyrrol-2-yl)methylene]-3-pyrazinyl-2-pyrazolin-5-one] reads 302 to 305 °C; that for `CCOC(=O)c1c[nH]c(C=C2C(=O)NN=C2C2CC2)c1-c1ccccc1` [Example 140, 3-Cyclopropyl-4-[(4-ethoxycarbonyl-3-phenylpyrrol-2-yl)methylene]-2-pyrazolin-5-one], 218 to 220 °C. As for `Cc1[nH]c(C=C2C(=O)NN=C2c2ccco2)c(C)c1CN(C)C` [Example 142, 4-[(3,5-Dimethyl-4-dimethylaminomethylpyrrol-2-yl)methylene]-3-(2-furyl)-2-pyrazolin-5-one], the melting point lay within 209 to 211 °C. Then `Cc1[nH]c(C=C2C(=O)NN=C2c2cccs2)c(C)c1CN(C)C` [Example 143, 4-[(3,5-Dimethyl-4-dimethylaminomethylpyrrol-2-yl)methylene]-3-(2-thienyl)-2-pyrazolin-5-one], with 208 to 210 °C. Then `Cc1[nH]c(C=C2C(=O)NN=C2c2cccnc2)c(C)c1CN(C)C` [Example 144, 4-[(3,5-Dimethyl-4-dimethylaminomethylpyrrol-2-yl)methylene]-3-(3-pyridyl)-2-pyrazolin-5-one], with 220 to 224 °C; and `CCOC(=O)c1c(C)[nH]c(C=C2C(=O)NN=C2c2ccccc2)c1C` [Example 145, 4-[(3,5-Dimethyl-4-ethoxycarbonylpyrrol-2-yl)methylene]-3-phenyl-2-pyrazolin-5-one], with 216 to 217 °C; and `CCc1c(C)[nH]c(C=C2C(=O)NN=C2c2ccccc2)c1C` [Example 146, 4-[(3,5-Dimethyl-4-ethylpyrrol-2-yl)methylene]-3-phenyl-2-pyrazolin-5-one], with 274 to 275 °C. The result for `CCOC(=O)c1c[nH]c(C=C2C(=O)NN=C2OCC)c1C(=O)OCC` [Example 147, 4-[(3,4-Di(ethoxycarbonyl)pyrrol-2-yl)methylene]-3-ethoxy-2-pyrazolin-5-one] reads 132 to 134 °C; that for `CCOC(=O)c1c[nH]c(C=C2C(=O)NN=C2OCC)c1` [Example 148, 3-Ethoxy-4-[(4-ethoxycarbonylpyrrol-2-yl)methylene]-2-pyrazolin-5-one], 212 to 216 °C; that for `CCOC(=O)c1c(C)[nH]c(C=C2C(=O)NN=C2CCc2ccccn2)c1C` [Example 149, 4-[(3,5-Dimethyl-4-ethoxycarbonylpyrrol-2-yl)methylene]-3-(2-pyridylethyl)-2-pyrazolin-5-one], 180 to 182 °C.

In turn, `CCOC(=O)c1c(C)[nH]c(C=C2C(=O)NN=C2C(C)Cc2ccccc2)c1C` (stereo not drawn) [Example 150, 4-[(3,5-Dimethyl-4-ethoxycarbonylpyrrol-2-yl)methylene]-3-(1-methyl-2-phenylethyl)-2-pyrazolin-5-one] yielded a melting point of 168 to 170 °C.
